Results on 8 molecules are retold here after US20110027352A1, “COMPOUNDS FOR USE IN THE TREATMENT OF NEUROPATHIC PAIN” (priority 2008, published 2011).

Entries after “also recorded” stand apart in the source; their conditions may differ.

Experiment [1] concerns mechanical allodynia of the neuropathic (“Cuff”) mice. Briefly: Sciatic nerve cuff murine model of neuropathic pain, von Frey filament test in neuropathic (Cuff) mice. The conditions noted are these: for Allodynia in neuropathic (Cuff) animals after chronic treatment, recapitulation (FIG. 25): chronic treatment (14-21 days), doses and modes as in examples 7, 9 to 14 and 20 (formoterol 0.5 mg/kg, terbutalin 5 mg/kg); for Mechanical allodynia of Cuff mice after the first (acute) injection: mice neuropathic for 2 weeks; for Effect on neuropathic allodynia acutely after the first injection, summary statement: first injection of the agonist, doses as in examples 7, 9, 11 and 15. The format is in vivo, C57BL/6J mice.
Experimental: (§1) The experiments were carried out on adult male mice. The pharmacological experiments were carried out using C57BL/6J mice (3-to-6 weeks old on their arrival, Charles River, L'Arbresle, France).
All the experiments began with mice that were 6-to-9 weeks old. […] For all the other experiments, the mice were combined at four to five per cage and kept under alternating 12-hour day/night (light at 6 am) with food and water ad libitum.
(§2) The model is obtained by placing a polyethylene cuff around the main branch of the right sciatic nerve of each mouse. Before any surgical procedure, the mice were assigned to the various experimental groups in such a way that the baseline mechanical nociception threshold and the weight are equivalent between the various groups. The surgical procedure was carried out under ketamin-xylazin anesthesia (ketamin: 17 mg/ml, xylazin 2.5 mg/ml, intraperitoneal injection in a proportion of 4 ml/kg) (limited liability company Centravet, Taden, France). The common branch of the sciatic nerve was exposed and a section 2 mm long of a hollow PE-20 polyethylene tube (“Harvard Apparatus”, Les Ulis, France) was placed around said branch (“Cuff” group). […] Control mice were operated on according to the same procedure, but without placing the cuff (“Sham” group). The experimental groups are made up of at least 4 mice for each control (“Sham”) group and at least 5 mice for each neuropathic (“Cuff”) group.
(§3) The mice are placed in transparent Plexiglas (registered trademark) boxes (7 cm×9 cm×7 cm) placed on a raised grid. Before the test, the mice are allowed to become accustomed to this device for 15 minutes. During the test, the von Frey filaments are applied to the plantar surface of each back foot according to ascending forces (from 0.16 g up to a foot withdrawal response, or up to a maximum of 10 g). Each filament is tested 5 times per foot and the threshold is defined by the presence of 3 or more withdrawals observed over the 5 tests. Before the surgery as described above, the animals were pretested in order to establish their baseline nociceptive response. During the chronic treatment experiments and those of repeated injection of antagonists, the tests are carried out in the mornings before the first injection of the day. During the acute agonist injection experiments, the tests are carried out after the first injection according to the time course as presented on the graphs.
The surgery for installing the cuff corresponds to day 0.
(§4) For all the treatments carried out by injection, said injections were given intraperitoneally in a volume of 50 microL per 10 mg of body weight.

Experiment [2] relates to nociceptive sensitivity of the mice of the control (“Sham”) group. Put plainly: von Frey filament test in control (Sham) mice operated without cuff. The class given is in vivo, C57BL/6J mice. The conditions noted are these: for Sensitivity of control (Sham) animals under chronic treatment, recapitulation (FIG. 26): chronic treatment (14-21 days), doses and modes as in examples 2, 7, 9 to 14 and 20 (formoterol 0.5 mg/kg, terbutalin 5 mg/kg); for Nociceptive sensitivity of control (Sham) mice under chronic treatment: repeated injections, doses and modes as for the Cuff mice of the same example.
Experimental: as §1, §2, §3, §4

For experiment [3], the system named is mechanical allodynia of the neuropathic (“Cuff”) mice. The conditions noted are these: as previously published (Benbouzid et al. 2008); cited from earlier work.
Experiment [4] has the same test system. Put plainly: Cotreatment with adrenoreceptor antagonists in Cuff mice relieved by chronic nortriptylin or beta-agonist treatment, von Frey test. The format is in vivo, C57BL/6J mice. The conditions noted are these: for Effect of ICI 118,551 on the therapeutic effect of chronic agonist treatment on neuropathic allodynia, summary statement: chronic treatment with the agonist plus beta2-adrenoreceptor antagonist ICI 118,551; for Effect of coadministered beta2-adrenoreceptor antagonist ICI 118,551 on the allodynia of agonist-treated Cuff mice: ICI 118,551 2 mg/kg intraperitoneal, after 3 weeks of agonist treatment (doses as in chronic treatment; terbutalin 0.5 mg/kg), 3 to 6 days of cotreatment.
Experimental: as §2
For the tests, in the examples which follow, the pressure is exerted on the foot of the mice by means of von Frey filaments (Bioseb, Chaville, France) (Benbouzid, M. et al. Biological Psychiatry 63:633-636 (2008) (10) and Benbouzid, M. et al. European Journal of Pain 12:591-599 (2008) (11)). The mice are placed in transparent Plexiglas (registered trademark) boxes (7 cm×9 cm×7 cm) placed on a raised grid. Before the test, the mice are allowed to become accustomed to this device for 15 minutes. During the test, the von Frey filaments are applied to the plantar surface of each back foot according to ascending forces (from 0.16 g up to a foot withdrawal response, or up to a maximum of 10 g). Each filament is tested 5 times per foot and the threshold is defined by the presence of 3 or more withdrawals observed over the 5 tests. Before the surgery as described above, the animals were pretested in order to establish their baseline nociceptive response. During the chronic treatment experiments and those of repeated injection of antagonists, the tests are carried out in the mornings before the first injection of the day. During the acute agonist injection experiments, the tests are carried out after the first injection according to the time course as presented on the graphs.
The procedure for intrathecal (i.t.) injection of the beta2-adrenoreceptor antagonist ICI 118,551 (3 μg in 10 μl) is carried out under halothane gas anesthesia according to the protocol described by Inoue et al. (Nature Medicine 2004, 10:712-718 (12)). These i.t. injections are carried out just before the intraperitoneal injection of salbutamol (2 mg/kg, i.p.). A 27-gauge injection needle connected to a 50 μl Hamilton syringe is inserted, between the L5 and L6 vertebrae, into the subarachnoid space. The correct placement of the needle is verified by the presence of a reflex movement of the tail of the mouse. The mice are pretested before this cotreatment procedure, and then cotreated twice (a morning and the corresponding evening) before being retested the following morning for their mechanical nociceptive sensitivity.

In the case of `CNCCC=C1c2ccccc2CCc2ccccc21` [nortriptylin], in experiment [1] (5 mg/kg, injection twice a day (morning and evening)), the “Mechanical allodynia in neuropathic (Cuff) mice after chronic treatment” value is reported as “ineffective initially, but subsequently causes the allodynia to completely disappear”. In experiment [2], the “Sensitivity of control (Sham) animals under chronic treatment, recapitulation (FIG. 26)” value (shortened to “Sensitivity of control … (FIG. 26)”) is on record as “does not impair the sensitivity of control animals” and the “Nociceptive sensitivity of control (Sham) mice under chronic treatment” value (from here on “Nociceptive sensitivity of control”) is given as “not affected”. In experiment [2] (terbutalin 0.125, 0.25, 0.5 or 5 mg/kg, nortriptylin 5 mg/kg, twice a day, 3 weeks), the “Sensitivity of control (Sham) animals, dose-response recapitulation (FIG. 21)” value is reported as “does not impair the sensitivity of control animals”. Moreover, the “Sensitivity of the neuropathic mouse model to chronic treatment with a tricyclic antidepressant” value in experiment [3] was “sensitive to chronic treatment”.

Take `CN(C)CCC=C1c2ccccc2CCc2ccccc21` [amitriptylin]: in experiment [3], the “Sensitivity of the neuropathic mouse model to chronic treatment with a tricyclic antidepressant” value is “sensitive to chronic treatment”.

As for `CCC(NC(C)C)C(O)c1ccc(O)c2[nH]c(=O)ccc12` (stereo not drawn) [procaterol], the “Mechanical allodynia in neuropathic (Cuff) mice after chronic treatment” value in experiment [1] (0.8 mg/kg, injection twice a day) is listed as “completely suppresses the mechanical allodynia”. Besides, the “Allodynia in neuropathic (Cuff) animals after chronic treatment, recapitulation (FIG. 25)” value (“Allodynia in neuropathic (Cuff) animals” for short) in experiment [1] is “relieve this allodynia; also recorded: causes the neuropathic pain, for example the neuropathic allodynia, to completely disappear”. In addition, the “Sensitivity of control … (FIG. 26)” value in experiment [2] is listed as “do not affect the control animals; also recorded: does not aspecifically affect the sensitivity of the control animals”. Moreover, the “Effect of ICI 118,551 on the therapeutic effect of chronic agonist treatment on neuropathic allodynia, summary statement” value in experiment [4] was “blocks the therapeutic effect”.

`CC(NCCc1ccc(O)cc1)C(O)c1ccc(O)cc1` (stereo not drawn) [ritodrin]: the “Mechanical allodynia in neuropathic (Cuff) mice after chronic treatment” value in experiment [1] (10 mg/kg, injection twice a day) is reported as “completely suppresses the mechanical allodynia”. In addition, in experiment [1], the “Allodynia in neuropathic (Cuff) animals” value was “relieve this allodynia; also recorded: causes the neuropathic pain, for example the neuropathic allodynia, to completely disappear”. For the same molecule, the “Sensitivity of control … (FIG. 26)” value in experiment [2] is listed as “do not affect the control animals; also recorded: does not aspecifically affect the sensitivity of the control animals”. Besides, in experiment [4], the “Effect of coadministered beta2-adrenoreceptor antagonist ICI 118,551 on the allodynia of agonist-treated Cuff mice” value is “causes the allodynia to reappear” and the “Effect of ICI 118,551 on the therapeutic effect of chronic agonist treatment on neuropathic allodynia, summary statement” value is listed as “blocks the therapeutic effect”.

For the molecule `CC(C)(C)NCC(O)c1cc(Cl)c(N)c(Cl)c1` (stereo not drawn) [clenbuterol], in experiment [1] (0.3 mg/kg, intraperitoneal), the “Mechanical allodynia of Cuff mice after the first (acute) injection” value (shortened to “Mechanical allodynia of Cuff mice”) is recorded as “has no effect on the mechanical allodynia”. In experiment [1] (0.3 mg/kg, intraperitoneal, twice a day), the “Mechanical allodynia in neuropathic (Cuff) mice after chronic treatment” value is reported as “completely suppresses the mechanical allodynia”. In addition, in experiment [1], the “Allodynia in neuropathic (Cuff) animals” value was “relieve this allodynia; also recorded: causes the neuropathic pain, for example the neuropathic allodynia, to completely disappear” and the “Effect on neuropathic allodynia acutely after the first injection, summary statement” value (“Effect on neuropathic allodynia acutely” below) is reported as “not observed acutely after the first injection”. Moreover, in experiment [2], the “Sensitivity of control … (FIG. 26)” value is given as “do not affect the control animals; also recorded: does not aspecifically affect the sensitivity of the control animals” and the “Nociceptive sensitivity of control” value was “not affected”. Further, in experiment [2] (clenbuterol 0.3 mg/kg, intraperitoneal, first injection), the “Control (Sham) mice after the first administration” value was “unaffected”. In addition, in experiment [4], the “Effect of coadministered beta2-adrenoreceptor antagonist ICI 118,551 on the allodynia of agonist-treated Cuff mice” value was “causes the allodynia to reappear” and the “Effect of ICI 118,551 on the therapeutic effect of chronic agonist treatment on neuropathic allodynia, summary statement” value is on record as “blocks the therapeutic effect”.

For `OCc1cc(C(O)CNCCCCCCOCCCCc2ccccc2)ccc1O` (stereo not drawn) [salmeterol], in experiment [1] (1 mg/kg, injection twice a day), the “Mechanical allodynia in neuropathic (Cuff) mice after chronic treatment” value is “completely suppresses the mechanical allodynia”. In experiment [1] (1 mg/kg, intraperitoneal), the “Mechanical allodynia of Cuff mice” value is “has no effect on the mechanical allodynia”. Moreover, in experiment [1], the “Allodynia in neuropathic (Cuff) animals” value is listed as “relieve this allodynia; also recorded: causes the neuropathic pain, for example the neuropathic allodynia, to completely disappear” and the “Effect on neuropathic allodynia acutely” value is “not observed acutely after the first injection”. The “Mechanical allodynia in neuropathic (Cuff) mice after chronic treatment by inhalation” value in experiment [1] (salmeterol xinafoate inhaler (Serevent), twice a day, 50 μg per session for 2 weeks, then inhaler pressed four times per session for 9 days) is recorded as “relieves the mechanical allodynia; also recorded: relieves neuropathic allodynia”. In experiment [2], the “Sensitivity of control … (FIG. 26)” value is “do not affect the control animals; also recorded: does not aspecifically affect the sensitivity of the control animals” and the “Nociceptive sensitivity of control” value is reported as “not affected”. In experiment [4], the “Effect of coadministered beta2-adrenoreceptor antagonist ICI 118,551 on the allodynia of agonist-treated Cuff mice” value is on record as “causes the allodynia to reappear” and the “Effect of ICI 118,551 on the therapeutic effect of chronic agonist treatment on neuropathic allodynia, summary statement” value is “blocks the therapeutic effect”.

As to `CC(Cc1ccc(O)cc1)NCC(O)c1cc(O)cc(O)c1` (stereo not drawn) [fenoterol], in experiment [1] (0.7 mg/kg, intraperitoneal), the “Mechanical allodynia of Cuff mice” value was “has no effect on the mechanical allodynia”. Moreover, the “Mechanical allodynia in neuropathic (Cuff) mice after chronic treatment” value in experiment [1] (0.7 mg/kg, twice a day) was “completely suppresses the mechanical allodynia”. In experiment [1], the “Allodynia in neuropathic (Cuff) animals” value is “relieve this allodynia; also recorded: causes the neuropathic pain, for example the neuropathic allodynia, to completely disappear” and the “Effect on neuropathic allodynia acutely” value is given as “not observed acutely after the first injection”. Also, in experiment [2], the “Sensitivity of control … (FIG. 26)” value is on record as “do not affect the control animals; also recorded: does not aspecifically affect the sensitivity of the control animals” and the “Nociceptive sensitivity of control” value was “not affected”. Besides, in experiment [4], the “Effect of coadministered beta2-adrenoreceptor antagonist ICI 118,551 on the allodynia of agonist-treated Cuff mice” value is reported as “causes the allodynia to reappear” and the “Effect of ICI 118,551 on the therapeutic effect of chronic agonist treatment on neuropathic allodynia, summary statement” value is given as “blocks the therapeutic effect”.

For the molecule `CC(C)(C)NCC(O)c1ccc(O)c(CO)c1` (stereo not drawn) [salbutamol], the “Mechanical allodynia in neuropathic (Cuff) mice after chronic treatment” value in experiment [1] (2 mg/kg, injection twice a day) is listed as “relieves the mechanical allodynia”. Also, in experiment [1] (2 mg/kg, intraperitoneal), the “Mechanical allodynia of Cuff mice” value is recorded as “has no effect on the mechanical allodynia”. In experiment [1], the “Allodynia in neuropathic (Cuff) animals” value is “relieve this allodynia; also recorded: causes the neuropathic pain, for example the neuropathic allodynia, to completely disappear” and the “Effect on neuropathic allodynia acutely” value is “not observed acutely after the first injection”. Besides, in experiment [1] (salbutamol sulfate inhaler (Ventolin), twice a day, 100 μg per session for 2 weeks, then inhaler pressed 3 times per session for 9 days), the “Mechanical allodynia in neuropathic (Cuff) mice after chronic treatment by inhalation” value was “relieves the mechanical allodynia; also recorded: relieves neuropathic allodynia”. Further, in experiment [2], the “Sensitivity of control … (FIG. 26)” value is reported as “do not affect the control animals; also recorded: does not aspecifically affect the sensitivity of the control animals” and the “Nociceptive sensitivity of control” value is on record as “not affected”. Further, the “Effect of intrathecal beta2-adrenoreceptor antagonist ICI 118,551 on the allodynia of agonist-treated Cuff mice” value in experiment [4] (ICI 118,551 3 μg in 10 μl intrathecal before each of 2 injections of salbutamol 2 mg/kg i.p., after at least 3 weeks of salbutamol) is reported as “causes the allodynia to reappear; also recorded: blocks the therapeutic effect”. In addition, in experiment [4], the “Effect of coadministered beta2-adrenoreceptor antagonist ICI 118,551 on the allodynia of agonist-treated Cuff mice” value is listed as “causes the allodynia to reappear” and the “Effect of ICI 118,551 on the therapeutic effect of chronic agonist treatment on neuropathic allodynia, summary statement” value was “blocks the therapeutic effect”.
